From US11241440B2, “Dihydrooxadiazine compounds for treating infections and cancer” (VALORALIA I MÁS D, SL, priority 2016, dated 2022)
Read-outs that look alike come from different tables or passages of the source.

Experiments:
[1] = Cellular viability, CellTiter Glo; format: cell-based; settings: human, read-out: CC50 nM (concentration of drug required to kill 50% of cells)
Procedure: (§1) All assays for assessing anti-HIV activity were taken in parallel to determine cellular viability of the culture in the presence or absence of different concentrations of the isolated molecule. It was followed exactly the same methodology as in the anti-HIV assay except with the addition of complete DMEM medium instead of supernatant viral, in the same proportion, and the detection of the viability was performed with the viability detection kit CellTiter Glo (Promega), following manufacturer instructions. Viability is directly proportional to the luciferase activity obtained. All data are expressed as percentage relative to a control with DMSO at the same concentration. Antiviral activity and toxicity curves were performed to the compound at different concentrations.

PBMCs = assay: Cellular viability, CellTiter Glo; format: cell-based; settings: PBMCs cells
Procedure: as §1

MT-2 cells = assay: Cellular viability, CellTiter Glo; format: cell-based
Procedure: as §1

N. carnea = assay: Kirby-Bauer disk diffusion susceptibility test; format: cell-based, Nocardia carnea; settings: N. carnea; 100 μg/disc; zone of inhibition
T. pulmonis = assay: Kirby-Bauer disk diffusion susceptibility test; format: cell-based, Tsukamurella pulmonis; settings: T. pulmonis; 100 μg/disc; zone of inhibition
HOS = assay: MTT assay; format: cell-based; settings: Homo sapiens, 48 hours
Aspergillus fumigatus = assay: EUCAST broth dilution antifungal susceptibility test (MIC); format: cell-based; settings: 100% inhibition, 24 hours at 35° C., dilution range 64 to 0.12 mg/l
Procedure: (§2) Filamentous fungi and yeasts strains, from clinical origin, were supplied by Microbiology Service from The Princess Hospital, Madrid. They are detailed in Table III. Filamentous fungi and yeast cells suspensions in distilled water was prepared from a culture of 24-48 h, depending on species, in Sabouraud agar. Each suspension was adjusted to a fixed size inoculum of 1-5×10^8 CFU/ml with a spectrophotometer (Ferraro, M J National Committee for Clinical Laboratory Standards. 2000). Antifungal susceptibility tests were developed following the standardized methodology detailed by the European Committee on Antimicrobial Susceptibility Testing (EUCAST) documents 7.2 (method for the determination of broth dilution minimum inhibitory concentrations of antifungal agents for yeasts EDef 7.2) and 9.2 (Method for the determination of broth dilution minimum inhibitory concentrations of antifungal agents for conidia forming foulds). The compound was dissolved in DMSO and diluted with RPMI plates with 2% glucose to pH 7 with MOPS buffer. […] Plates were inoculated with a yeast suspension or filamentous fungal spores (1-5×10^5 cls/ml). The results were evaluated after 24 hours incubation at 35° C. and absorbance reading at 530 nm.

Aspergillus terreus = assay: as above; format: cell-based; settings: 100% inhibition, 24 hours at 35° C., dilution range 64 to 0.12 mg/l
Procedure: as §2

Candida parapsilosis = assay: as above; format: cell-based; settings: 50% inhibition, 24 hours at 35° C., dilution range 64 to 0.12 mg/l
Procedure: as §2

Scedosporium prolificans = assay: as above; format: cell-based; settings: 100% inhibition, 24 hours at 35° C., dilution range 64 to 0.12 mg/l
Procedure: as §2

Aspergillus flavus = assay: as above; format: cell-based; settings: 100% inhibition, 24 hours at 35° C., dilution range 64 to 0.12 mg/l
Procedure: as §2

CCCCCC1=NN(C(=O)CCO)OC(CCCCC)C1 (stereo not drawn) [Compound, 1-(4,6-dipentyl-5,6-dihydro-2H-1,2,3-oxadiazin-2-yl)-3-hydroxypropan-1-one]
CC50 ([1]; MT-2 cells): 2500 to 5000 nM | CC50 ([1]; PBMCs): 2500 to 5000 nM | toxicity (PBMCs): only in the highest concentrations tested (5 and 10 μM) | toxicity (MT-2 cells): only in the highest concentrations tested (5 and 10 μM) | Activity (mm), 100 μg/disc (N. carnea): 48-50 mm | Activity (mm), 100 μg/disc (T. pulmonis): 49-52 mm | IC50 (HOS): 170 nM | MIC (minimum inhibitory concentration) (Aspergillus fumigatus): 0.5 | MIC (minimum inhibitory concentration) (Aspergillus terreus): 0.25 | MIC (minimum inhibitory concentration) (Candida parapsilosis): 0.5 | MIC (minimum inhibitory concentration) (Scedosporium prolificans): 0.5 | MIC (minimum inhibitory concentration) (Aspergillus flavus): 1
